Key:
[1] = test system: autoimmune hemolytic anemia; settings: cited from earlier work
From the text: Previously we have shown that the impact of CD4 T cell epitope administration in the absence of adjuvant depends on peptide solubility. […] Importantly, however, addition of charged residues at the N- and C-termini of the band 3 epitope rendered it both soluble and immuno-modulatory. Unlike the insoluble 861-874 that both primed band 3 reactive inflammatory T cells and promoted generation of pathogenic ...

Tg4 splenocytes = experiment: In vitro antigenicity: proliferation of Tg4 splenocytes (3H-TdR); type: cell-based, mouse; settings: 2x10^5 per well, 3H-TdR at d3; limiting dose 1 ng/ml
Experimental: Proliferation was assessed by tritiated thymidine (^3H-TdR) incorporation with either whole splenocytes or isolated APC populations and antigen-specific Tg4 responder CD4^+ T cells. Tg4 whole splenocytes were cultured in 96-well round bottom plates, 2x10^5 whole splenocytes per well, with addition of the indicated concentration of the relevant peptide. Whole splenocytes from B10.PL mice that had received CD4^+ CD45.1^+ T cells followed by CD11c^+ cells were cultured in 48–well plates at 1.25x10^6 per well. Isolated populations were plated out at 5x10^4/well CD4^+ T cells, with either equal numbers of CD11c^+ DC, B cells or monocytes enriched as specified. Cells were cultured at 37°C, 5% CO2. At 24 and 72 hours, supernatant was taken for cytokine analysis and medium was supplemented with 0.5µCi ^3H-TdR (GE Healthcare Lifesciences, UK) for 16 hours. Plates were frozen at –20°C in preparation for later harvesting with a Tomtec harvester onto filter papers (Cox Scientific, Kettering, UK). Levels of incorporated radioactivity were assessed from the dried filter papers, sealed in sample bags (Wallac, Milton Keynes, UK) with 3ml scintillation fluid, ^3H-TdR incorporation was measured on a 1450 MicroBeta liquid scintillation counter (Wallac).

splenic CD11c+ DC = experiment: In vivo APC targeting after SC peptide: ex vivo presentation to naive Tg4 CD4+ T cells; design: species or system mouse (B10.PL); settings: 80µg SC, proliferation of Tg4 CD4+ T cells in vitro
From the text: CD11c^+ cells were isolated from whole splenocytes in MACS buffer using the CD11c microbead positive selection kit (Miltenyi Biotec, Surrey, UK) as per the manufacturer’s instructions. Single cell suspensions were used for magnetic selection using the EasySep Mouse B Cell Isolation kit or EasySep Mouse Monocyte Enrichment kit (both Stemcell Technologies, Grenoble, France) as per the manufacturer’s instructions. In the B10.PL APC targeting experiments, single cell suspensions (without digestion) of Tg4 splenocytes were counted and T cells isolated using Magnisort® Mouse CD4 T cell isolation kit (affymetrix, eBioscience, Hatfield, UK) as per the manufacturer’s instructions. Cells were either enriched by magnetic sorting prior to fluorescence-activated cell sorting (FACS) or sorted from splenocytes. […] Peptide bound to APC was detected in vitro by activation of naïve Tg4 cells, as evidenced through ^3H.thymidine incorporation. […] Peptide bound to APC was detected in vitro by activation of CD4^+ T cells from the lymph nodes and spleen of HLA-DR3 transgenic mice immunized with the 5D peptide in CFA. T cell activation was detected by interferon gamma secretion over 3 days.
Proliferation was assessed by tritiated thymidine (^3H-TdR) incorporation with either whole splenocytes or isolated APC populations and antigen-specific Tg4 responder CD4^+ T cells. […]

serum IL-2 = experiment: Serum IL-2 after a single SC dose of peptide; type: in vivo, mouse (Tg4); settings: Tg4 mice, single SC dose 80µg
Experimental: (§1) Tg4 mice were primed with a single dose (80μg) of 4Y in PBS by SC injection. Tolerance induction involved escalating dose immunotherapy (EDI) whereby each Tg4 or tiger-Tg4 mouse was treated with 0.08, 0.8, 8, 80, 80 and 80μg 4Y in PBS by SC injection at the right-side flank every 3rd or 4th day ([20]).
(§2) MFBI Th1/Th2 Flow Cytomix Multiplex kits (eBioscience) were used to measure the concentration of cytokines in the serum 2 h after s.c. treatment with soluble peptide.
(§3) Figure 3 Impact of soluble versus insoluble peptide treatment on T cell function in Tg4 mice. A single SC dose of soluble 4Y (80µg) induces rapid and high levels of IL-2 into the serum of Tg4 mice (A) when compared to insoluble 4Y-3LF (B). For the data shown in (C), Tg4 mice received a SC injection of 80µg MBP Ac1-9[4Y] or 4Y-3LF. Blood was removed from the tail vein at the specified times following injection, baseline was taken prior to peptide injection and the cellular fraction was stained for flow cytometry. Inguinal lymph node (ILN), brachial lymph node (BLN) and spleen were collected at 48–hours. Percentages of CD4^+ cells were gated on live singlets. […] (*p ≤ 0.05, **p ≤ 0.01, ***p ≤ 0.001, ****p ≤ 0.0001). […] Tg4 mice were given SC injections of PBS containing the indicated doses of 4Y peptide given every 3rd or 4th day (2 doses per week).

serum IL-10 = experiment: Serum IL-10 during dose escalation of SC peptide; type: in vivo, mouse (Tg4); settings: Tg4 mice, SC dose escalation 0.08 to 80µg every 3rd or 4th day
Experimental: as §1, §2, §3

CD4 cells = experiment: Intracellular cytokine staining of spleen cells for IL-10 after dose escalation; type: in vivo, mouse (Tg4); settings: Tg4 mice, after the final 80 µg dose of dose escalation
Experimental: as §1
Intracellular cytokine staining of splenocytes was performed after a 3-h stimulation with phorbol 12-myristate 13-acetate (5ng/ml) and ionomycin (500ng/ml) (both Sigma-Aldrich) with GolgiStop (BD Biosciences). Cells were stained with Vβ8-FITC (clone KJ16-133, diluted 1:100) or with fixable viability dye eFluor780 (1:1,000) before surface staining with CD4-Alexa700 (GK1.5, 1:100) and fixation using IC fixation buffer (all from eBioscience). Antibodies for intracellular cytokine staining were diluted in permeabilization buffer; IL-10-allophycocyanin (APC) (JES5-16E3, 1:200), IFN-γ-PerCP-Cy5.5 (XMG1.2, 1:200) (both from eBioscience). Data were collected using an LSR II flow cytometer (BD Biosciences) and analyzed using FlowJo software (Treestar).

[2] = test system: lymph node cells or splenocytes; experiment: T cell anergy: ex vivo proliferation of lymph node cells or splenocytes after dose escalation; type: in vivo, mouse (Tg4); settings: Tg4 mice, six escalating SC doses, cells three days after sixth dose, 3H-TdR at 72 hours
Experimental: as §1
Proliferation was assessed by tritiated thymidine (^3H-TdR) incorporation with either whole splenocytes or isolated APC populations and antigen-specific Tg4 responder CD4^+ T cells. Tg4 whole splenocytes were cultured in 96-well round bottom plates, 2x10^5 whole splenocytes per well, with addition of the indicated concentration of the relevant peptide. Whole splenocytes from B10.PL mice that had received CD4^+ CD45.1^+ T cells followed by CD11c^+ cells were cultured in 48–well plates at 1.25x10^6 per well. […] Levels of incorporated radioactivity were assessed from the dried filter papers, sealed in sample bags (Wallac, Milton Keynes, UK) with 3ml scintillation fluid, ^3H-TdR incorporation was measured on a 1450 MicroBeta liquid scintillation counter (Wallac).
Figure 2 Peptide solubility predicts accessibility to steady state DC and determines tolerance induction: The 4Y peptide was rendered increasingly insoluble by addition of LF motifs. […] Proliferation was measured by tritiated thymidine (^3H-TdR) incorporation at 72 hours. […]

In the case of “861-874: insoluble peptide epitope from the red blood cell band 3 protein (FVLILTVPLRRVLL; UniProt P02730 861-874, looked up, fragment) [Peptide 861-874]”, the “Effect of intranasal administration in NZB mice” value ([1]; intranasal, no adjuvant) is given as “promote autoimmunity” and the “Solubility of band 3 peptide” value ([1]; mouse, in vivo) is given as “insoluble”.

With Ac-ASQYRPSLFLFLF-NH2 [Peptide 4Y-3LF] the “Antigenicity: proliferation of Tg4 splenocytes in vitro” value (Tg4 splenocytes) was “significantly weaker”, the “Presentation by splenic CD11c+ DC collected 2h after SC administration” value (splenic CD11c+ DC) was “barely detectable” and the “Time of peak serum IL-2 after SC injection” value (serum IL-2) was 8 h. For the same substance, the “IL-10 detectable in serum” value (serum IL-10) was “No IL-10 was detectable”, the “CD4 cells producing IL-10 (intracellular cytokine staining of spleen cells)” value (CD4 cells) was “close to background levels” and the “Ex vivo proliferation of lymph node cells or splenocytes stimulated with the Ac1-9 peptide” value [2] was “partially suppressed”.
